≈ marks a conversion by molar mass, not a printed value. Where “and” joins values, the source holds several entries; their conditions need not be identical. Equal entries are not always repeated. Where two headings read alike, the source gives them in different places. Positions of bridges follow the written chain, without caps; N, C: chain ends. Residues, ends and D or L forms follow the SMILES beside them.
How the values were obtained:
HEK 293T cells = assay: CellTiter Blue assay; type: cell-based, human; conditions: about 16 hours treatment, viability normalised to vehicle
Method: HEK 293T cells (ATCC CRL-3216) were grown in DMEM medium, supplemented with 10% FBS, 1 mM sodium pyruvate, non-essential amino acids. 100 μL of 10 000 cells were grown in flat-bottom 96-well plates (Fischer Scientific) overnight until cells are attached to the plate. Peptides were dissolved with Mini-plasco Nacl 0.9% (B. Braun) to 2 mg/mL and diluted to indicated concentrations using cell culture medium. Cells were treated by adding 100 μL peptides to each well for about 16 hours. Cells lysed with 1% Triton X-100 was included as a positive control. The toxicity of the peptide treatments was evaluated using the CellTiter-Blue Cell Viability Assay according to the instructions of the manufacturer (Promega, USA). The metabolic activity of viable cells is measured by recording fluorescence intensity at 590 nm after excitation at 560 nm. Cell viability is determined by normalising the fluorescence intensity of peptide- or triton-treated cells to the vehicle-treated sample.

E. coli BL21 = conditions: BL21, 17 h
Summary of the method: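 EUCAST broth microdilution in Mueller-Hinton medium; end-exponential culture diluted to 0.005 McF (~1.5x10^6 CFU/mL) before 1:1 mixing with two-fold peptide dilutions (0.75 to 100 μg/mL), triplicates.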

[1] = tested on: E. coli XL1-Red (ancestor strain); type: cell-based; conditions: XL1-Red (ancestor strain, 17 h)
Method: In a previous study, we generated a P2-resistant strain by subculturing the hypermutable E. coli XL1-Red, which has a 5 000-fold higher mutation rate than wildtype bacteria, at the sub-MIC concentration of P2 for 27 days. […] The MIC of a few categories of P2 variants were determined to investigate whether P2 antimicrobial activity can be restored against P2-resistant bacteria via structure modification. […] The amount of intracellularly accumulated P2_VFV in P2-resistant strains was much higher than P2 (Fig 5A), which was sufficient to induce cell death (FAM^+Draq7^+ cells) (Fig 5B). […] (Fig 5C).
(§1) The peptide MIC was determined via the broth microdilution assay according to the EUCAST guideline, using 96-well polystyrene flat-bottom microtiter plates (BD Biosciences). Briefly, a single colony was inoculated in 5 mL Mueller-Hinton (MH) medium and incubated, while shaking at 37°C, to the end-exponential growth phase. The bacterial culture was subsequently diluted to 0.005 McFarland (McF) (~1.5x10^6 CFU/mL) with fresh MH medium. Two-fold serial peptide-dilutions were prepared in 50 μL MH medium resulting in a concentration range of 0.75 to 100 μg/mL (at least three wells for each concentration). […] The MIC was determined as the lowest peptide concentration without visible bacterial growth.

[2] = tested on: E. coli ATCC clinical isolates; assay: microbe, parasite or virus in culture; type: cell-based
Text: To address the emerging antibiotic resistance issue, it is not only required to develop active antibiotics against wildtype bacteria, but also against the clinically isolated multidrug-resistant strains. Therefore, we determined whether P2 variants with a 4-fold lower MICs (P2_A5F, V7Y (P2), P2_H12_GV, P2_H12_PEG) (S12 Table) will also show improved antimicrobial activity against these multidrug-resistant strains. Since a high net positive charge could carry inherent developability challenges, we further explored the therapeutic potential of P2 variants with reduced net charge (P2_4R_GV and P2_4R_L) (S12 Table) by determining their antimicrobial activity against these clinically isolated multidrug-resistant strains. The mode of action of these derivatives remains to be inducing protein aggregation in bacteria as shown by the formation of IBs stained by pFTAA after Pept-in treatment (P2, P2-4R-GV, P2_A5F, V7Y (P2), P2_H12_GV, P2_H12_PEG) (S6A Fig) and the presence of a large number of proteins with different molecular weights in purified IBs as shown by the Coomassie staining (S6B Fig), in contrast to the absence of pFTAA staining (S6A Fig) and the presence of only two faint protein bands (S6B Fig) for buffer and control peptide treated bacteria. For clinically isolated multidrug-resistant strains, in addition to the 34 clinical isolates of E. coli ATCC, we added 12 Acinetobacter baumannii (A. baumannii) isolates and 12 Klebsiella pneumoniae (K. pneumoniae) isolates to broaden the selection of the bacterial spectrum.
as §1, with “medium.” for “medium. Two-fold serial peptide-dilutions were prepared in 50 μL MH medium resulting in a concentration range of 0.75 to 100 μg/mL (at least three wells for each concentration).”

[3] = tested on: K. pneumoniae clinical isolates; type: cell-based, Klebsiella pneumoniae; conditions: 17 h
Text: To address the emerging antibiotic resistance issue, it is not only required to develop active antibiotics against wildtype bacteria, but also against the clinically isolated multidrug-resistant strains. Therefore, we determined whether P2 variants with a 4-fold lower MICs (P2_A5F, V7Y (P2), P2_H12_GV, P2_H12_PEG) (S12 Table) will also show improved antimicrobial activity against these multidrug-resistant strains. Since a high net positive charge could carry inherent developability challenges, we further explored the therapeutic potential of P2 variants with reduced net charge (P2_4R_GV and P2_4R_L) (S12 Table) by determining their antimicrobial activity against these clinically isolated multidrug-resistant strains. […]
The peptide MIC was determined via the broth microdilution assay according to the EUCAST guideline, using 96-well polystyrene flat-bottom microtiter plates (BD Biosciences). […] The MIC was determined as the lowest peptide concentration without visible bacterial growth.

CC(C)C[C@H](NC(=O)CNC(=O)[C@H](CCCNC(=N)N)NC(=O)[C@H](CC(C)C)NC(=O)[C@H](C)NC(=O)[C@H](CCCNC(=N)N)NC(=O)[C@@H](NC(=O)[C@H](CC(C)C)NC(=O)[C@H](C)NC(=O)[C@H](CC(C)C)NC(=O)CNC(=O)[C@H](CC(C)C)NC(=O)CNC(=O)[C@@H](N)CCCNC(=N)N)C(C)C)C(=O)NCC(=O)N[C@@H](CC(C)C)C(=O)N[C@@H](C)C(=O)N[C@@H](CC(C)C)C(=O)N[C@H](C(=O)N[C@@H](C)C(=O)N[C@@H](CCCNC(=N)N)C(=O)O)C(C)C [Peptide P2_4R_L] (H-RGLGLALVRALRGLGLALVAR-OH)
toxicity on HEK 293T cells (HEK 293T cells): induced toxicity effects

CC(C)C[C@H](NC(=O)CNC(=O)[C@H](CCCNC(=N)N)NC(=O)[C@@H](NC(=O)CNC(=O)[C@H](CCCNC(=N)N)NC(=O)[C@H](CCCNC(=N)N)NC(=O)[C@@H](NC(=O)[C@H](CC(C)C)NC(=O)[C@H](C)NC(=O)[C@H](CC(C)C)NC(=O)CNC(=O)[C@H](CC(C)C)NC(=O)CNC(=O)[C@@H](N)CCCNC(=N)N)C(C)C)C(C)C)C(=O)NCC(=O)N[C@@H](CC(C)C)C(=O)N[C@@H](C)C(=O)N[C@@H](CC(C)C)C(=O)N[C@H](C(=O)N[C@@H](CCCNC(=N)N)C(=O)N[C@@H](CCCNC(=N)N)C(=O)O)C(C)C [Peptide P2_GV] (H-RGLGLALVRRGVRGLGLALVRR-OH)
toxicity on HEK 293T cells (HEK 293T cells): induced toxicity effects

CC(C)C[C@@H]1NC(=O)CNC(=O)[C@H](CCCNC(=N)N)NC(=O)[C@H](C(C)C)NC(=O)[C@H](CCCNC(=N)N)NC(=O)[C@H](CCCNC(=N)N)NC(=O)[C@H](C(C)C)NC(=O)[C@H](CC(C)C)NC(=O)[C@H](C)NC(=O)[C@H](CC(C)C)NC(=O)CNC(=O)[C@H](CC(C)C)NC(=O)[C@@H](NC(=O)[C@@H](N)CCCNC(=N)N)CSSC[C@@H](C(=O)O)NC(=O)[C@H](CO)NC(=O)CNC(=O)[C@H](CCCNC(=N)N)NC(=O)[C@H](CCCNC(=N)N)NC(=O)[C@H](CC(C)C)NC(=O)[C@H](C)NC(=O)[C@H](CC(C)C)NC(=O)CNC1=O [Peptide P2_H6] (H-RCLGLALVRRVRGLGLALRRGSC-OH; disulfide 2-23)
BL21 MIC, SS bond (E. coli BL21): 6.25 µg/mL | BL21 MIC, no SS bond (E. coli BL21): 12.5 µg/mL | MIC, Ancestor [1]: 3.13 µg/mL (≈ 1.25 µM)

CC(C)C[C@H](NC(=O)CNC(=O)[C@H](CCCNC(=N)N)NC(=O)[C@@H]1CSSC[C@H](NC(=O)[C@@H](NC(=O)[C@H](CC(C)C)NC(=O)[C@H](C)NC(=O)[C@H](CC(C)C)NC(=O)CNC(=O)[C@H](CC(C)C)NC(=O)CNC(=O)[C@@H](N)CCCNC(=N)N)C(C)C)C(=O)N[C@@H](CCCNC(=N)N)C(=O)N[C@@H](CCCNC(=N)N)C(=O)NCC(=O)N[C@@H](C(C)C)C(=O)N1)C(=O)NCC(=O)N[C@@H](CC(C)C)C(=O)N[C@@H](C)C(=O)N[C@@H](CC(C)C)C(=O)N[C@H](C(=O)N[C@@H](CCCNC(=N)N)C(=O)N[C@@H](CCCNC(=N)N)C(=O)O)C(C)C [Peptide P2_H12_GV] (H-RGLGLALVCRRGVCRGLGLALVRR-OH; disulfide 9-14)
BL21 MIC (E. coli BL21): 3.13 µg/mL | BL21 MIC, SS bond (E. coli BL21): 3.13 µg/mL | BL21 MIC, no SS bond (E. coli BL21): 6.25 µg/mL | MIC, Ancestor [1]: 3.13 µg/mL (≈ 1.22 µM)

CC(C)C[C@H](NC(=O)CNC(=O)[C@H](CCCNC(=N)N)NC(=O)[C@@H]1CCCN1C(=O)[C@H](CCCNC(=N)N)NC(=O)[C@H](CCCNC(=N)N)NC(=O)[C@@H](NC(=O)[C@H](CC(C)C)NC(=O)[C@H](C)NC(=O)[C@H](CC(C)C)NC(=O)CNC(=O)[C@H](CC(C)C)NC(=O)CNC(=O)[C@@H](NC(=O)[C@H](Cc1ccccc1)NC(=O)[C@@H](NC(=O)[C@@H](N)CCCNC(=N)N)C(C)C)C(C)C)C(C)C)C(=O)NCC(=O)N[C@@H](CC(C)C)C(=O)N[C@@H](C)C(=O)N[C@@H](CC(C)C)C(=O)N[C@H](C(=O)N[C@@H](CCCNC(=N)N)C(=O)N[C@@H](CCCNC(=N)N)C(=O)O)C(C)C [Peptide P2_VFV] (H-RVFVGLGLALVRRPRGLGLALVRR-OH)
toxicity on HEK 293T cells (HEK 293T cells): higher toxicity at 400 μg/mL and 200 μg/mL than P2

NC[C@H]1O[C@H](O[C@H]2[C@H](O)[C@@H](O[C@H]3O[C@H](CO)[C@@H](O)[C@H](N)[C@H]3O)[C@H](N)C[C@@H]2N)[C@H](N)C[C@@H]1O [Tobramycin]
MIC ([2]; Escherichia coli, S12 Table, each table row is one E. coli clinical isolate (34 isolates), highest concentration tested 32 μg/mL, read-out: MIC): 1 µg/mL (≈ 2.14 µM) | MIC ([2]; S12 Table, each table row is one E. coli clinical isolate (34 isolates), highest concentration tested 32 μg/mL): 0.5 µg/mL and >1 µg/mL

CC(C)C[C@H](NC(=O)CNC(=O)[C@H](CCCNC(=N)N)NC(=O)[C@@H]1CCCN1C(=O)[C@H](CCCNC(=N)N)NC(=O)[C@H](CCCNC(=N)N)NC(=O)[C@H](CO)NC(=O)[C@H](CC(C)C)NC(=O)[C@H](C)NC(=O)[C@H](CC(C)C)NC(=O)CNC(=O)[C@H](CC(C)C)NC(=O)CNC(=O)[C@@H](N)CCCNC(=N)N)C(=O)NCC(=O)N[C@@H](CC(C)C)C(=O)N[C@@H](C)C(=O)N[C@@H](CC(C)C)C(=O)N[C@@H](CO)C(=O)N[C@@H](CCCNC(=N)N)C(=O)N[C@@H](CCCNC(=N)N)C(=O)O [V7S (P2)] (H-RGLGLALSRRPRGLGLALSRR-OH)
BL21 MIC (E. coli BL21): 100.00 µg/mL

CC(C)C[C@H](NC(=O)CNC(=O)[C@H](CCCNC(=N)N)NC(=O)[C@@H]1CCCN1C(=O)[C@H](CCCNC(=N)N)NC(=O)[C@H](CCCNC(=N)N)NC(=O)[C@@H](NC(=O)[C@H](CC(C)C)NC(=O)[C@H](C)NC(=O)[C@H](CC(C)C)NC(=O)CNC(=O)[C@H](CC(C)C)NC(=O)CNC(=O)[C@@H](N)CCCNC(=N)N)[C@@H](C)O)C(=O)NCC(=O)N[C@@H](CC(C)C)C(=O)N[C@@H](C)C(=O)N[C@@H](CC(C)C)C(=O)N[C@H](C(=O)N[C@@H](CCCNC(=N)N)C(=O)N[C@@H](CCCNC(=N)N)C(=O)O)[C@@H](C)O [V7T (P2)] (H-RGLGLALTRRPRGLGLALTRR-OH)
BL21 MIC (E. coli BL21): 50.00 µg/mL

CC(C)C[C@H](NC(=O)CNC(=O)[C@H](CCCNC(=N)N)NC(=O)[C@@H]1CCCN1C(=O)[C@H](CCCNC(=N)N)NC(=O)[C@H](CCCNC(=N)N)NC(=O)[C@H](Cc1ccc(O)cc1)NC(=O)[C@H](CC(C)C)NC(=O)[C@H](C)NC(=O)[C@H](CC(C)C)NC(=O)CNC(=O)[C@H](CC(C)C)NC(=O)CNC(=O)[C@@H](N)CCCNC(=N)N)C(=O)NCC(=O)N[C@@H](CC(C)C)C(=O)N[C@@H](C)C(=O)N[C@@H](CC(C)C)C(=O)N[C@@H](Cc1ccc(O)cc1)C(=O)N[C@@H](CCCNC(=N)N)C(=O)N[C@@H](CCCNC(=N)N)C(=O)O [V7Y (P2)] (H-RGLGLALYRRPRGLGLALYRR-OH)
BL21 MIC (E. coli BL21): 3.13 µg/mL | MIC [3]: 8 µg/mL (≈ 3.29 µM) | MIC ([2]; ATCC clinical isolates, 17 h): 8 µg/mL (≈ 3.29 µM)

From publication PMC10065276, “Enhanced therapeutic window for antimicrobial Pept-ins by investigating their structure-activity relationship” (PLOS ONE, 2023)
